These results are taken from paper PMC3187750, “Functional Analysis of the Cytoskeleton Protein MreB from Chlamydophila pneumoniae” (PLoS ONE, 2011).

Structures are written as SMILES.

The target in experiment [1] is T1, MreB from C. pneumoniae (chlamydial MreB) (Chlamydia pneumoniae, UniProt A0ABN3YSA6).
T1 sequence (A0ABN3YSA6 2-366): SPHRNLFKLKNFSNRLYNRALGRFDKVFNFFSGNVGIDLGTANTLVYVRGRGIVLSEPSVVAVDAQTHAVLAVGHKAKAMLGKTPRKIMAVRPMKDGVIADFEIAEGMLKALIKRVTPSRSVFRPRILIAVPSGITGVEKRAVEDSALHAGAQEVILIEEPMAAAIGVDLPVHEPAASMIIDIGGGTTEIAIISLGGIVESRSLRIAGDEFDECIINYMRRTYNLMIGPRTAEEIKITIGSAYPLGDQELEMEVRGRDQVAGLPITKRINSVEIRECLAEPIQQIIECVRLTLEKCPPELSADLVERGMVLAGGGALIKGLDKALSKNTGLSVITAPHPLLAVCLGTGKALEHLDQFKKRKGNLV
The settings on record: 5 µM MreB, 200 µM ATP; polymerizing (5 mM MgCl2, pH 7) and monomeric (no MgCl2, pH 8) conditions.

The target of experiment [2] is T1, MreB from C. pneumoniae (chlamydial MreB). In words: light scattering polymerization assay. Type of experiment: biochemical. Also noted: pET-21b, EcoRI/XhoI, C-terminal His6 tag kept; expressed in E. coli BL21(DE3); Ni-NTA purified. Particulars: standard polymerization conditions (5 µM MreB, 5 mM MgCl2, pH 7, 20 °C).

Consider `Nc1ncnc2c1ncn2[C@@H]1O[C@H](COP(=O)(O)OP(=O)(O)OP(=O)(O)O)[C@@H](O)[C@H]1O` [ATP], for which the “phosphate release, molybdate-malachite green assay” value in experiment [1] was “The C345A mutant and wild-type MreB proteins hydrolyzed ATP without marked differences”. In the case of `Nc1nc2c(ncn2[C@@H]2O[C@H](COP(=O)(O)OP(=O)(O)OP(=O)(O)O)[C@@H](O)[C@H]2O)c(=O)[nH]1` [GTP], the “light scattering polymerization assay” value in experiment [2] is “In the presence of GTP, the kinetics and extent of wild-type MreB polymerization was impaired”.
